Where only a bound is given, the exact number is not on record here.

The target of this assay is T1, androgen receptor (Homo sapiens, UniProt P10275).
T1 sequence (P10275 1-920 Q868H): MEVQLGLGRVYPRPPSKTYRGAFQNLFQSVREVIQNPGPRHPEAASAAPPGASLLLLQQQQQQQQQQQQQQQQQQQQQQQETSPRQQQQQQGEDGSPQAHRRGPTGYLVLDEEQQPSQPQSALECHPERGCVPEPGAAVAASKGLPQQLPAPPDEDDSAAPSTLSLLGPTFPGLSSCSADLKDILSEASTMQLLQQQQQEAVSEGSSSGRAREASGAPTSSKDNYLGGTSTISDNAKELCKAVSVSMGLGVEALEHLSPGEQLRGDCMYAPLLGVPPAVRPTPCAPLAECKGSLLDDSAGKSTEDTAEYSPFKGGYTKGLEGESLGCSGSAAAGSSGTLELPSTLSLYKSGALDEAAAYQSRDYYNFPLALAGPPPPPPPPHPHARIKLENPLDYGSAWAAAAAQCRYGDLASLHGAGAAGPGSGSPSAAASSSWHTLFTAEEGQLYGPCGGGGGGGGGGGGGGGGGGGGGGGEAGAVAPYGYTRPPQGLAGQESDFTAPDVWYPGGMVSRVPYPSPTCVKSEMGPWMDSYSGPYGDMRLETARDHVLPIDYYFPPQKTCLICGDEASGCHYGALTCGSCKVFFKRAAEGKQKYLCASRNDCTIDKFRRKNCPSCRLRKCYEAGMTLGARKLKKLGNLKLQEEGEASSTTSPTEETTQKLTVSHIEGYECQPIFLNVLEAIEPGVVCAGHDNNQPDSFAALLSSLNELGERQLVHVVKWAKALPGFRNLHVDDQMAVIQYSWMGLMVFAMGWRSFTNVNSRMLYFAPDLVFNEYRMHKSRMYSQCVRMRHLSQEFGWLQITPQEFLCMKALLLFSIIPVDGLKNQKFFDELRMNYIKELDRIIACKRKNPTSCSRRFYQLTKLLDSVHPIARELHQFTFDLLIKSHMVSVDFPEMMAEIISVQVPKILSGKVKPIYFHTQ
Kind of assay: AR Antagonist Cell Assay (MMTV-luciferase reporter, DHT-stimulated). It is filed as cell-based. The conditions noted are these: MDA-MB453-MMTV clone 54-19 cells; antagonism of 100 pM DHT, 17 hr, luciferase readout. How it is done:
The compounds ability to antagonize the effects of androgen on the androgen receptor were determined in the protocol described immediately below.
Experimental Procedure for AR Antagonist Cell Assay
Cell line: MDA-MB453-MMTV clone 54–19. This cell line is a stable transfected cell line with MDA-MB453 cell background (human breast tumor cell expressing high level of androgen receptor). A MMTV minimal promoter containing ARE was first cloned in front of a firefly luciferase reporter gene. Then the cascade was cloned into transfection vector pUV120puro. Electroporation method was used for transfecting MDA-MB-453 cell. Puromycin resistant stable cell line was selected.
Cell Culture Media and Reagents:
Culture medium: DMEM (high glucose, Gibco cat #: 11960-044), 10% FBS, and 1% L-glutamine
Plating medium: DMEM (phenol red free), 10% charcoal treated HyClone serum, 1% L-glutamine
Assay medium: DMEM (phenol red free), 1% charcoal treated HyClone serum, 1% L-glutamine, and 1% penicillin/streptomycin
3× luciferase buffer: 2% beta-mercaptoethanol, 0.6% ATP, 0.0135% luciferine in cell lysis buffer
• 1. Cells are maintained in culture medium, splitting cells when they reach 80–90% confluence • 2. To test compounds, 10,000 cells/well are plated to opaque 96 cell culture plate in 100 ul/well plating medium, culture for overnight at 37° C. in cell culture incubator • 3. Carefully remove plating medium, then add 80 ul/well of pre-warmed assay medium, add 10 ul/well testing compound (final concentration at 10 uM or 1 uM), incubate at 37° C. for 30 minutes • 4. Add 10 ul/well freshly prepared DHT (final concentration at 100 pM) to each well, incubate at 37° C. for 17 hr (overnight) • 5. Add 50 ul/well 3× luciferase buffer, incubate at room temperature for 5 minutes, then count on Luminometer.
The fold induction over background by 100 pM DHT in the absence of testing compounds is standardized as 100% and experimental result is expressed as percentage of inhibition by testing compounds.
A general note: A reporter such as luciferase makes a cellular process visible.
Consider `Cc1ccc(-c2ccccc2)cc1NS(=O)(=O)c1ccc(Cc2ccc3[nH]c(=O)cc(C(F)(F)F)c3c2)cc1` [Example 22, N-(4-Methylbiphenyl-3-yl)-4-(2-oxo-4-trifluoromethyl-1,2-dihydroquinolin-6-ylmethyl)-benzenesulfonamide], for which the 50% inhibitory concentration (IC50) is above 10 µM.
`O=c1cc(C(F)(F)F)c2cc(Cc3ccc(S(=O)(=O)NCc4ccccc4OC(F)F)cc3)ccc2o1` [Example 199, N-(2-Difluoromethoxybenzyl)-4-(2-oxo-4-trifluoromethyl-2H-chromen-6-ylmethyl)benzenesulfonamide] had an IC50 of 4.73 µM.
`O=c1cc(C(F)(F)F)c2cc(Cc3ccc(S(=O)(=O)Nc4ccc(Cl)cc4)cc3)ccc2[nH]1` [Example 26, N-(4-Chlorophenyl)-4-(2-oxo-4-trifluoromethyl-1,2-dihydroquinolin-6-ylmethyl)-benzenesulfonamide] gave an IC50 of 1.97 µM.
As for `O=c1cc(C(F)(F)F)c2cc(Cc3ccc(S(=O)(=O)Nc4cccc(OC(F)F)c4)cc3)ccc2[nH]1` [Example 36, N-(3-Difluoromethoxyphenyl)-4-(2-oxo-4-trifluoromethyl-1,2-dihydroquinolin-6-ylmethyl)-benzenesulfonamide], inhibition was half-maximal at 6.14 µM (IC50).
The figure for `CN(CCC#N)S(=O)(=O)c1ccc(Cc2ccc3[nH]c(=O)cc(C(F)(F)F)c3c2)cc1` [Example 10, N-(2-Cyanoethyl)-N-methyl-4-(2-oxo-4-trifluoromethyl-1,2-dihydroquinolin-6-ylmethyl)benzenesulfonamide] is above 10 µM; for `CCCCN(CCCC)S(=O)(=O)c1ccc(Cc2ccc3oc(=O)cc(C(F)(F)F)c3c2)cc1` [Example 97, N,N-Dibutyl-4-(2-oxo-4-trifluoromethyl-2H-chromen-6-ylmethyl)benzenesulfonamide] it is 6.23 µM.
As for `O=c1cc(C(F)(F)F)c2cc(Cc3ccc(S(=O)(=O)NCC(c4ccccc4)c4ccccc4)cc3)ccc2[nH]1` [Example 92, N-(2,2-Diphenylethyl)-4-(2-oxo-4-trifluoromethyl-1,2-dihydroquinolin-6-ylmethyl)-benzenesulfonamide], the midpoint of inhibition, the IC50, lay at 2.71 µM.
Take `CC(=O)c1cccc(NS(=O)(=O)c2ccc(Cc3ccc4[nH]c(=O)cc(C(F)(F)F)c4c3)cc2)c1` [Example 21, N-(3-Acetylphenyl)-4-(2-oxo-4-trifluoromethyl-1,2-dihydroquinolin-6-ylmethyl)benzenesulfonamide]: the IC50 came to 9.09 µM.
The figure for `O=c1cc(C(F)(F)F)c2cc(Cc3ccc(S(=O)(=O)NCCO)cc3)ccc2[nH]1` [Example 51, N-(2-Hydroxyethyl)-4-(2-oxo-4-trifluoromethyl-1,2-dihydroquinolin-6-ylmethyl)-benzenesulfonamide] is 2.18 µM.
`O=c1cc(C(F)(F)F)c2cc(Cc3ccc(S(=O)(=O)N[C@H]4[C@@H]5CC[C@@H](C5)[C@H]4CO)cc3)ccc2[nH]1` (stereo in doubt) [Example 88, N-(3-Hydroxymethyl-bicyclo[2.2.1]hept-2-yl)-4-(2-oxo-4-trifluoromethyl-1,2-dihydroquinolin-6-ylmethyl)-benzenesulfonamide] had an IC50 above 10 µM.
Turning to `O=c1cc(C(F)(F)F)c2cc(Cc3ccc(S(=O)(=O)Nc4ccccc4CO)cc3)ccc2o1` [Example 121, N-(2-Hydroxymethylphenyl)-4-(2-oxo-4-trifluoromethyl-2H-chromen-6-ylmethyl)-benzenesulfonamide], the IC50 was found to be 3.17 µM. That is a single-digit micromolar value.
Under `Cc1cccc(CNS(=O)(=O)c2ccc(Cc3ccc4oc(=O)cc(C(F)(F)F)c4c3)cc2)c1` [Example 169, N-(3-Methylbenzyl)-4-(2-oxo-4-trifluoromethyl-2H-chromen-6-ylmethyl)benzenesulfonamide] stands 5.81 µM.
The compound `CCOC(=O)C(NS(=O)(=O)c1ccc(Cc2ccc3[nH]c(=O)cc(C(F)(F)F)c3c2)cc1)c1ccccc1` (stereo not shown) [Example 89, [4-(2-Oxo-4-trifluoromethyl-1,2-dihydroquinolin-6-ylmethyl)-benzenesulfonylamino]-phenylacetic acid ethyl ester] came in with an IC50 above 10 µM.
Consider `O=c1cc(C(F)(F)F)c2cc(Cc3ccc(S(=O)(=O)Nc4cccc(C(F)(F)F)c4)cc3)ccc2o1` [Example 145, 4-(2-Oxo-4-trifluoromethyl-2H-chromen-6-ylmethyl)-N-(3-trifluoromethylphenyl)-benzenesulfonamide], for which the IC50 was found to be 1.72 µM.
Under `O=c1cc(C(F)(F)F)c2cc(Cc3ccc(S(=O)(=O)Nc4cc5ccccc5cn4)cc3)ccc2o1` [Example 136, N-Isoquinolin-3-yl-4-(2-oxo-4-trifluoromethyl-2H-chromen-6-ylmethyl)benzenesulfonamide] stands above 10 µM; under `CC(O)c1cccc(NS(=O)(=O)c2ccc(Cc3ccc4[nH]c(=O)cc(C(F)(F)F)c4c3)cc2)c1` (stereo not shown) [Example 23, N[-3-(1-Hydroxyethyl)phenyl]-4-(2-oxo-4-trifluoromethyl-1,2-dihydroquinolin-6-ylmethyl)-benzenesulfonamide], 1.67 µM; under `O=c1cc(C(F)(F)F)c2cc(Cc3ccc(S(=O)(=O)NCC4CCCCC4)cc3)ccc2o1` [Example 165, N-Cyclohexylmethyl-4-(2-oxo-4-trifluoromethyl-2H-chromen-6-ylmethyl)benzene-sulfonamide], around 10 µM.
As for `O=c1cc(C(F)(F)F)c2cc(Cc3ccc(S(=O)(=O)NCc4c(F)cccc4F)cc3)ccc2o1` [Example 188, N-(2,6-Difluorobenzyl)-4-(2-oxo-4-trifluoromethyl-2H-chromen-6-ylmethyl)benzenesulfonamide], the IC50 was found to be 1.91 µM. This lies in the single-digit micromolar range.
For `CCCCCN(CCO)S(=O)(=O)c1ccc(Cc2ccc3oc(=O)cc(C(F)(F)F)c3c2)cc1` [Example 105], the midpoint of inhibition, the IC50, lay at 3.52 µM.
In turn, `O=c1cc(C(F)(F)F)c2cc(Cc3ccc(S(=O)(=O)Nc4ccc(CO)cc4)cc3)ccc2o1` [Example 124, N-(4-Hydroxymethylphenyl)-4-(2-oxo-4-trifluoromethyl-2H-chromen-6-ylmethyl)-benzenesulfonamide] displayed an IC50 of 2.31 µM.
The compound `CCOc1ccccc1CNS(=O)(=O)c1ccc(Cc2ccc3[nH]c(=O)cc(C(F)(F)F)c3c2)cc1` [Example 71, N-(2-Ethoxybenzyl)-4-(2-oxo-4-trifluoromethyl-1,2-dihydroquinolino-6-ylmethyl)-benzenesulfonamide] returned a concentration for half-maximal inhibition (IC50) above 10 µM.
The figure for `C#Cc1ccc(NS(=O)(=O)c2ccc(Cc3ccc4oc(=O)cc(C(F)(F)F)c4c3)cc2)cc1` [Example 118, N-(4-Ethynylphenyl)-4-(2-oxo-4-trifluoromethyl-2H-chromen-6-ylmethyl)-benzenesulfonamide] is 5.47 µM.
Take `Cc1ccc(-c2ccccc2)cc1NS(=O)(=O)c1ccc(Cc2ccc3oc(=O)cc(C(F)(F)F)c3c2)cc1` [Example 132, N-(4-Methylbiphenyl-3-yl)-4-(2-oxo-4-trifluoromethyl-2H-chromen-6-ylmethyl)-benzenesulfonamide]: the IC50 came out at 8.13 µM. The IC50 values of the last two compounds are within 1.5-fold of each other.
In turn, `O=c1cc(C(F)(F)F)c2cc(Cc3ccc(S(=O)(=O)Nc4ccc(-n5ccc(C(F)(F)F)n5)cc4)cc3)ccc2o1` [Example 155, 4-(2-Oxo-4-trifluoromethyl-2H-chromen-6-ylmethyl)-N-[4-(3-trifluoromethylpyrazol-1-yl)phenyl]benzenesulfonamide] showed a concentration for half-maximal inhibition (IC50) of 6.5 µM. This IC50 and that of the compound before are within 1.5-fold of each other.
For `O=c1cc(C(F)(F)F)c2cc(Cc3ccc(S(=O)(=O)NCCc4ccccc4)cc3)ccc2[nH]1` [Example 57, 4-(2-Oxo-4-trifluoromethyl-1,2-dihydroquinolin-6-ylmethyl)-N-phenethylbenzenesulfonamide], the half-inhibitory concentration (IC50) is above 10 µM.

As usually defined, the IC50 is the concentration that gives 50% inhibition. A lower IC50 goes with greater potency in that assay.
